Measurements: patent publication US11110141B2, “Herbal compositions for the prevention or treatment of urinary incontinence and overactive bladder” (Rox IP Pty Ltd., priority 2011, dated 2021)

Test system: bladder control problems (urinary frequency, nocturia, stress incontinence, interstitial cystitis)
Assay: Case studies
Type: in vivo, human
Procedure: person with a history of bladder frequency since childhood. They were diagnosed as a child, via cystometric studies, as having a small bladder. They were not medicated.
They presented urinary frequency, every 1.5 hours; nocturia (waking for the toilet at night) every 1.5 to 2.5 hours.
If consumed large quantities of alcohol (greater than 8 standard drinks), would experience flooding nocturesis (bed wetting). […]
person with stress incontinence (2-7 times daily) and urinary frequency (11 times daily). […] When presented, they were using oxybutynin patches (Oxytrol). A specialist recommended that they change patches every 3 days.
Person presented with interstitial cystitis that had been worsening for at least the past 5 years. They presented with penile pain (and some lower abdominal pain) that would increase in intensity the fuller their bladder, with relief on urination. As a result, they would need to urinate at least every 1.5 hours, day and night. If they went too long, the pain would increase to the point where they found it extremely difficult to walk or move. Every month, they would have an episode, usually during the night, where they would pass copious amounts of blood and some mucous from the bladder.
They would also find that every two weeks their symptom severity would increase and they would have “horrific, sharp pain all day every day” for two days. […]

| Compound | tolerability of previously tried drugs (Case 2, patient history) | tolerability of previously tried drugs (in vivo) |
| --- | --- | --- |
| CCN(CC)CC#CCOC(=O)C(O)(c1ccccc1)C1CCCCC1 (centres unmarked) [oxybutynin] | could not tolerate the side effects of dry mouth and nasal passages |  |
| Cc1ccc(O)c([C@H](CCN(C(C)C)C(C)C)c2ccccc2)c1 [Detrol] |  | could not tolerate the side effects of dry mouth and nasal passages |
